The source of these data is patent publication US20210087496A1, “Non-Enzymatic Removal Of Proteinaceous Soils” (Henkel AG & Co. KGaA, priority 2019, published 2021).

Like-named read-outs stand apart in the source and are kept apart here.

In this test the target is T1, Maillard product of lactose and albumin from chicken egg (band at ~50-55 kDa) (Gallus gallus, UniProt P01012).
T1 sequence (P01012 1-386): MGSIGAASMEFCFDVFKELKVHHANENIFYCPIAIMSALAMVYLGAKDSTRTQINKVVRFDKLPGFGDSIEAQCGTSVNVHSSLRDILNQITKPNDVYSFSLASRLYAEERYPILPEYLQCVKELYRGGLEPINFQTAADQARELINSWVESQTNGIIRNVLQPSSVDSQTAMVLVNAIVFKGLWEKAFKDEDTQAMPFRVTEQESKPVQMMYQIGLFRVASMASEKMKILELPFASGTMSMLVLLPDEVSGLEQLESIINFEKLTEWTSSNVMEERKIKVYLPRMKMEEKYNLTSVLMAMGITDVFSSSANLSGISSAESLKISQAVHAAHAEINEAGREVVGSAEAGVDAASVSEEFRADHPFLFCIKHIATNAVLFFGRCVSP
Conditions: complex 0.2 mM, Maillard product 3 g/l, 60° C., pH 9.5.
Description: A mixture of lactose and albumin from chicken egg, approx. 45 000 g/mol, in a weight ratio of 3:1 was dissolved in de-salinated water and stirred for 30 min at room temperature. The resulting solution was lyophilized using a commercial lab lyophilizer (Christ; Gamma 1-20) and homogenized. 0.5 g of the resulting powder was heated to 140° C. for 20 min and was then allowed to cool to room temperature. […] An aqueous solution of the Maillard product (3 g/l) was incubated at 60° C. at pH 9.5 (hydrogen carbonate/carbonate buffer) with the complexes of examples 1 and 2 at the concentrations and for amounts of time given in table 1. The progress of protein degradation was followed by SDS page gel analysis. The intensity value of the band at ˜50-55 kDa at time t=0, that is before the start of incubation, is set to 1.

As to `O=C1CN2CCN3CC(=O)[O][Zr]([O]1)([O]c1ccccc1C2)[O]c1ccccc1C3` [Complex K1], the “Intensity of the band at ~50-55 kDa” value reads like this: (t = 0 h (before start of incubation, set to 1)) 1; (t = 1 h, relative to t=0 set to 1) 0.91; (t = 2 h, relative to t=0 set to 1) 0.83.
